According to BindingDB's records for patent US8633204 (Pfizer, 2014):

Molecular target: Phosphatidylinositol 4,5-bisphosphate 3-kinase catalytic subunit alpha isoform (Mus musculus, UniProt P42337)
Experiment: Biochemical Assay
Conditions: pH 7.4; 25 °C
Method: Compounds of the present invention were evaluated for potency against PI3-Kα using an in vitro kinase assay. PI3-Kα activity is measured in vitro by determining the level of phosphorylation of the substrate PI(4,5)P2. The formation of product PI(3,4,5)P3 is monitored by binding to the Grip1 PH domain in a ligand displacement fluorescence polarization (FP) assay, in which the TAMRA-labeled PI(3,4,5)P3 complexed with Grip1 PH domain is displaced by PI(3,4,5)P3 formed in the PI3-Kα reaction resulting in a decrease in FP signal.

Phosphatidylinositol 4,5-bisphosphate 3-kinase catalytic subunit alpha isoform, sequence (P42337 whole entry, canonical isoform): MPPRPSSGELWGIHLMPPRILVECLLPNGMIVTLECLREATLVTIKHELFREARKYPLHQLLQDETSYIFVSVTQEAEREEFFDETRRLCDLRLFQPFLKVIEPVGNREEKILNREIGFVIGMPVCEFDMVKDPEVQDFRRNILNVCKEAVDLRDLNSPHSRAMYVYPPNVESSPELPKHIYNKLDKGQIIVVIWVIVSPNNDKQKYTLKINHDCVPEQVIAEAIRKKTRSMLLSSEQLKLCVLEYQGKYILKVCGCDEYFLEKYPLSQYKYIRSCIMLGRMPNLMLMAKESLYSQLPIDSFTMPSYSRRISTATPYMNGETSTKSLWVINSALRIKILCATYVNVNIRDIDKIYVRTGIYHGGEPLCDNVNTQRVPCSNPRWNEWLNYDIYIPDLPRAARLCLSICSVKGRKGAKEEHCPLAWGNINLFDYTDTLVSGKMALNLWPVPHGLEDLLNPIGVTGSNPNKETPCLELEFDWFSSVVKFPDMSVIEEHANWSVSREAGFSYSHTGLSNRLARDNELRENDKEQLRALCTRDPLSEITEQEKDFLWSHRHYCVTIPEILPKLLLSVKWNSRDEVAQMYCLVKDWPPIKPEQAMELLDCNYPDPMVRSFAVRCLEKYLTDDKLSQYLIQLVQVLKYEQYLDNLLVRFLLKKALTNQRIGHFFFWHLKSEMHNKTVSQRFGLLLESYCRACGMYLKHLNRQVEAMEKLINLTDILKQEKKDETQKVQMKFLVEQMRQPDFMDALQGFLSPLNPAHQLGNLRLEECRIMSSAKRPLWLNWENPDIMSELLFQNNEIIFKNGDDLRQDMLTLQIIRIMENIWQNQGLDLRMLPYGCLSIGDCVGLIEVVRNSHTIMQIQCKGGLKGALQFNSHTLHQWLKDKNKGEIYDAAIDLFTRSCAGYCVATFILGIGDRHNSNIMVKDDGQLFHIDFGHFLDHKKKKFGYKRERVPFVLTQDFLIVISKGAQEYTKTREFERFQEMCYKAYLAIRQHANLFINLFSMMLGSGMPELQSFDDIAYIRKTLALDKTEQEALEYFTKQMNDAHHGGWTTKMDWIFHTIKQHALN

IC50 [nM]	SMILES
1430	Cc1nc(N)nc2c1cc(-c1cccnc1N)c(=O)n2C1CCCC1 [US8633204, 125]
3.08	CCNc1nc(C)c2cc(-c3ccc(O)c(OC)c3)c(=O)n(C3CCCC3)c2n1 [US8633204, 136]
1.01	CCNc1nc(C)c2cc(-c3cccc(O)c3)c(=O)n(C3CCCC3)c2n1 [US8633204, 144]
44	Cc1nc(N)nc2c1cc(Br)c(=O)n2[C@H]1CC[C@H](O)CC1 [US8633204, 157]
680	Cc1nc(N)nc2c1cc(Br)c(=O)n2CC(C)(C)O [US8633204, 167]
12	Cc1nc(N)nc2c1cc(-c1cn[nH]c1)c(=O)n2C1CCC(=O)CC1 [US8633204, 176]
32	Cc1nc(N)nc2c1cc(-c1cnn(C)c1)c(=O)n2C1CCCC1 [US8633204, 235]
